Measurements reported in patent publication EP4745135A1 (Gluetacs Therapeutics (Shanghai) Co., Ltd., priority 2023, dated 2025).

Key:
CK1α = molecular target: T1, CK1α (Homo sapiens, UniProt P48729+Q96SW2); assay: Western blot, degradation of substrate protein in hPBMCs; assay type: cell-based
T1 construct: effects of the compounds of the present disclosure on the expression of target proteins in cells; endogenous in cells; host or cells: human PBMCs (Milecell Biotechnologies)

IKZF1 = molecular target: T2, IKZF1 (Homo sapiens, UniProt Q13422+Q96SW2); assay: as above; assay type: cell-based
T2 construct: effects of the compounds of the present disclosure on the expression of target proteins in cells; endogenous in cells; host or cells: human PBMCs (Milecell Biotechnologies)

IKZF2 = molecular target: T3, IKZF2 (Homo sapiens, UniProt Q96SW2+Q9UKS7); assay: as above; assay type: cell-based
T3 construct: effects of the compounds of the present disclosure on the expression of target proteins in cells; endogenous in cells; host or cells: human PBMCs (Milecell Biotechnologies)

IKZF3 = molecular target: T4, IKZF3 (Homo sapiens, UniProt Q96SW2+Q9UKT9); assay: as above; assay type: cell-based
T4 construct: effects of the compounds of the present disclosure on the expression of target proteins in cells; endogenous in cells; host or cells: human PBMCs (Milecell Biotechnologies)

WEE1 = molecular target: T5, WEE1 (Homo sapiens, UniProt P30291+Q96SW2); assay: as above; assay type: cell-based
T5 construct: effects of the compounds of the present disclosure on the expression of target proteins in cells; endogenous in cells; host or cells: human PBMCs (Milecell Biotechnologies)

GSPT1 = assay: as above; assay type: cell-based, Human
[1] = molecular target: T6, human Cereblon WT GST-tagged protein (Homo sapiens, UniProt Q96SW2); assay: CRBN-binding affinity, HTRF (CEREBLON BINDING kit); details: for inhibition at 0.5 µM: read-out: Inhibition Rate at 0.5 µM (%); for inhibition at 2 µM: read-out: Inhibition Rate at 2 µM (%); for IC50: CRBN binding, HTRF, 3 hours at room temperature, read-out: HTRF IC50
T6 construct: purchased CISBIO 64BDCRBNPEH

[2] = Western blot, 24 hours of compound treatment, compounds tested at 50 nM and 500 nM (concentration for the table not stated)
[3] = 24 hours treatment, compounds at 50 nM and 500 nM (concentration behind the class not stated)

T4 sequence (Q9UKT9 whole entry): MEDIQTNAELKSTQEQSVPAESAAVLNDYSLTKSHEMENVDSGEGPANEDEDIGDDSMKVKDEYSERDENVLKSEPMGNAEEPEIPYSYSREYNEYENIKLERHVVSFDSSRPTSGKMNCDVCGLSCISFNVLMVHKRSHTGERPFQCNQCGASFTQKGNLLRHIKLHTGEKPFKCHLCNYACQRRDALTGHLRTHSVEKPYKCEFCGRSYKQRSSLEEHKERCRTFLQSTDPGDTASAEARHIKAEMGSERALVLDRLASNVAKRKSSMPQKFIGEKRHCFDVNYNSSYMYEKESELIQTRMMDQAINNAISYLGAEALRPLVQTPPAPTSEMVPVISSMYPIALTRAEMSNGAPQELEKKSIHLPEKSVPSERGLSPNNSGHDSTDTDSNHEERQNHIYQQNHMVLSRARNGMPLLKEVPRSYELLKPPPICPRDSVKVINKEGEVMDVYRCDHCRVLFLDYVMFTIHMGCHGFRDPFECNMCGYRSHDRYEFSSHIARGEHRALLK
T4 sequence (Q96SW2 whole entry): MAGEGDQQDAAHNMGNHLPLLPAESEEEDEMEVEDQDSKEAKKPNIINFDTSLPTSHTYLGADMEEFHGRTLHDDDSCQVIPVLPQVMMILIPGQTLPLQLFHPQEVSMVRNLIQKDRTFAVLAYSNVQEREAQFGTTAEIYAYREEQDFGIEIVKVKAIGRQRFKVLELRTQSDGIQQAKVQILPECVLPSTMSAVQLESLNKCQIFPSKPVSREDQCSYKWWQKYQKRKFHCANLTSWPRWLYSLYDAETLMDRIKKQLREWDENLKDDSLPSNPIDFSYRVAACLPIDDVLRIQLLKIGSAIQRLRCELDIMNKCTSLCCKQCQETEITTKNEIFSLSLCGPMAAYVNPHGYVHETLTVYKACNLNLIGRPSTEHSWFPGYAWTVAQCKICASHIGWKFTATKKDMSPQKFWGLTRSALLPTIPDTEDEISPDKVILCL
T4 sequence (Q16531 whole entry partner): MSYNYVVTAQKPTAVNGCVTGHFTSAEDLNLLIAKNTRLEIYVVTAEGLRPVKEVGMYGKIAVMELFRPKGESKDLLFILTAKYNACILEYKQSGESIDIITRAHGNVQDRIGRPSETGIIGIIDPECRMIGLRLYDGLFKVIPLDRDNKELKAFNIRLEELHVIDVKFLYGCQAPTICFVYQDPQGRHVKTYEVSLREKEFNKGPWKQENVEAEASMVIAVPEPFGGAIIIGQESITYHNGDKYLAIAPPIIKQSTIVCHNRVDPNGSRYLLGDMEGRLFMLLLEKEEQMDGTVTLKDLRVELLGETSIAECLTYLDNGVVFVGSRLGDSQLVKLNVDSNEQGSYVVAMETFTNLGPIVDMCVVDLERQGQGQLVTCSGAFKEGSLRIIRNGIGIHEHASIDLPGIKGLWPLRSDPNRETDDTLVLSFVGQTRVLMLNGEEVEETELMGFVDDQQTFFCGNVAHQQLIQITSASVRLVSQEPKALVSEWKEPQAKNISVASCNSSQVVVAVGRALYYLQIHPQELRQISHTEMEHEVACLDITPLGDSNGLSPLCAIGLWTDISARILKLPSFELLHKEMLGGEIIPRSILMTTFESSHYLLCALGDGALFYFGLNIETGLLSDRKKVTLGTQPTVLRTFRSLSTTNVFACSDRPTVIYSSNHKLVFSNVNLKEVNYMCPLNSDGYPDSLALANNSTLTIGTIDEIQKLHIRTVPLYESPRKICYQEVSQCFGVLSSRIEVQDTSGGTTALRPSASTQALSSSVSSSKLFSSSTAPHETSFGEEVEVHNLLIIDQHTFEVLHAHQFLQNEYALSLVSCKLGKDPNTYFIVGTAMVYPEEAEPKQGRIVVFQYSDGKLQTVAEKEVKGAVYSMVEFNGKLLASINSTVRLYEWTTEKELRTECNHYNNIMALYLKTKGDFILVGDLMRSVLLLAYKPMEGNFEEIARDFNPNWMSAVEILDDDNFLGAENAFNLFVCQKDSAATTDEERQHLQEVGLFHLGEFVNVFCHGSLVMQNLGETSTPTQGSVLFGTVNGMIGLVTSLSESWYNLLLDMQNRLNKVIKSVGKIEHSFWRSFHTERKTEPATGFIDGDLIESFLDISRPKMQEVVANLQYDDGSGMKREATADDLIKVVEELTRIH
T2 sequence (Q13422 whole entry): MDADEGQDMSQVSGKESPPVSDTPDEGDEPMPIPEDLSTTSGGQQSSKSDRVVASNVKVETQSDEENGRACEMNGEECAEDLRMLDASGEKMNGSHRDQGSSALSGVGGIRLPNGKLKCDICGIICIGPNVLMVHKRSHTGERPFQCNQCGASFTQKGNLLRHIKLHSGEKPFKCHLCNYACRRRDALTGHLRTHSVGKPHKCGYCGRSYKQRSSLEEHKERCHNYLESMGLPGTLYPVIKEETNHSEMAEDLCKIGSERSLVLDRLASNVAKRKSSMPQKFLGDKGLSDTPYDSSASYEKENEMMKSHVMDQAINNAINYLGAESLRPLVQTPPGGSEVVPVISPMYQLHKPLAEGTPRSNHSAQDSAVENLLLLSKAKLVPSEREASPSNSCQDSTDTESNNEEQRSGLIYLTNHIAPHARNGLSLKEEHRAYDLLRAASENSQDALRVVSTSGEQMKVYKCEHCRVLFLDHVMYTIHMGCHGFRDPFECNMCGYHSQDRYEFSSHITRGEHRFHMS
T2 sequence (Q96SW2 whole entry): as the sequence (Q96SW2 whole entry) above
T2 sequence (Q16531 whole entry partner): as the sequence (Q16531 whole entry partner) above
T3 sequence (Q9UKS7 whole entry): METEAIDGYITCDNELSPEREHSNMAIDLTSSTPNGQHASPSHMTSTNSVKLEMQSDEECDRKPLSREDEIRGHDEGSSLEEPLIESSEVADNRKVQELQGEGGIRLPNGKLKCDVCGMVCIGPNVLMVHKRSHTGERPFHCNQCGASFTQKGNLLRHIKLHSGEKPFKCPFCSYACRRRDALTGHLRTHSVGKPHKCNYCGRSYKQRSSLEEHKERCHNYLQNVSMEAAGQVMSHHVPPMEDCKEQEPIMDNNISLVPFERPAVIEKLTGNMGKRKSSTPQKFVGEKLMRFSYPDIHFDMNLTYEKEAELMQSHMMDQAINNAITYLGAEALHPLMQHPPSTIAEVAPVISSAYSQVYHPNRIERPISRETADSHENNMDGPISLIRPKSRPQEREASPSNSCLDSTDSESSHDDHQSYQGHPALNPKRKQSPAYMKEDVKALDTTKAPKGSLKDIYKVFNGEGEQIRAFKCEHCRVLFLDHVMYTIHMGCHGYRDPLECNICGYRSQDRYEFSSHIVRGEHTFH
T3 sequence (Q96SW2 whole entry): as the sequence (Q96SW2 whole entry) above
T3 sequence (Q16531 whole entry partner): as the sequence (Q16531 whole entry partner) above
T6 sequence (Q96SW2 whole entry): as the sequence (Q96SW2 whole entry) above
T1 sequence (P48729 whole entry): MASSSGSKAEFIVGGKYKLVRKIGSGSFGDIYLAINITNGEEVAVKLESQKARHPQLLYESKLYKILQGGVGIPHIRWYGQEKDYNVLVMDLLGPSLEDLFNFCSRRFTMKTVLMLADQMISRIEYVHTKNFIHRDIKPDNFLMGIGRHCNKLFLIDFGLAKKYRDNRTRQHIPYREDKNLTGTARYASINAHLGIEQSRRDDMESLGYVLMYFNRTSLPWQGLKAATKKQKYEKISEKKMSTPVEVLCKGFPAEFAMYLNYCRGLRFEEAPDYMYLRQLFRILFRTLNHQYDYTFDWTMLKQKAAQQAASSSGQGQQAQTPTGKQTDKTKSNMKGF
T1 sequence (Q96SW2 whole entry): as the sequence (Q96SW2 whole entry) above
T1 sequence (Q16531 whole entry partner): as the sequence (Q16531 whole entry partner) above
T5 sequence (P30291 whole entry): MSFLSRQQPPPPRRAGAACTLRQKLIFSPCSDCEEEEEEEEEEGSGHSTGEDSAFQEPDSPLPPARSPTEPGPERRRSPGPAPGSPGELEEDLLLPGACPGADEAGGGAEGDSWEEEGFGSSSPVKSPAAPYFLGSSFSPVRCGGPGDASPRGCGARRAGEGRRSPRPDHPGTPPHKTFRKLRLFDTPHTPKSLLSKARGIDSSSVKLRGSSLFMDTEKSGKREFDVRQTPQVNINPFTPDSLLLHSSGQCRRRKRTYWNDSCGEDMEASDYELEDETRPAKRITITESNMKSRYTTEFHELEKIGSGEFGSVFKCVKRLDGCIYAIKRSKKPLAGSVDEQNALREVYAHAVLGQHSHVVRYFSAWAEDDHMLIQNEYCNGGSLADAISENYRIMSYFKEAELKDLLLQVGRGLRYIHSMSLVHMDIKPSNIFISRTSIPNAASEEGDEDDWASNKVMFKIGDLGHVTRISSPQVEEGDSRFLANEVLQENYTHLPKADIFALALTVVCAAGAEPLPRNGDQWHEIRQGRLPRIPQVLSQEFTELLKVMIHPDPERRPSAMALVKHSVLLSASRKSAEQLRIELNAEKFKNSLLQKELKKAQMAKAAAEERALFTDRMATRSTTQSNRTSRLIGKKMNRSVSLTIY
T5 sequence (Q96SW2 whole entry): as the sequence (Q96SW2 whole entry) above
T5 sequence (Q16531 whole entry partner): as the sequence (Q16531 whole entry partner) above

Structure (SMILES) | CK1α substrate protein remaining % (CK1α; [2]) | IKZF 1 substrate protein remaining % (IKZF1; [2]) | IKZF2 substrate protein remaining % (IKZF2; [2]) | IKZF3 substrate protein remaining % (IKZF3; [2]) | Wee1 substrate protein remaining % (WEE1; [2]) | GSPT1 substrate protein remaining % (GSPT1; [2]) | inhibition at 0.5 µM [1] | inhibition at 2 µM [1] | CK1α substrate protein remaining % (CK1α; [3]) | IKZF 1 substrate protein remaining % (IKZF1; [3]) | IKZF2 substrate protein remaining % (IKZF2; [3]) | IKZF3 substrate protein remaining % (IKZF3; [3]) | Wee1 substrate protein remaining % (WEE1; [3]) | GSPT1 substrate protein remaining % (GSPT1; [3]) | IC50 [1]
O=C1CCC(N2Cc3cc(CN4CCN(c5ccc(Cl)cc5Cl)CC4)ccc3C2=S)C(=O)N1 (stereo not drawn) [GT-08604, 3-(5-((4-(2,4-dichlorophenyl)piperazin-1-yl)methyl)-1-thioxoisoindolin-2-yl)piperidine-2,6-dione] | B (80%< substrate protein remaining %≤ 100%) | B (80%< substrate protein remaining %≤ 100%) | B (80%< substrate protein remaining %≤ 100%) | B (80%< substrate protein remaining %≤ 100%) | B (80%< substrate protein remaining %≤ 100%) | A (0% ≤ substrate protein remaining % ≤ 80%) | 30 to 40% | 60 to 80% |  |  |  |  |  |  | 
CC1(C)CCC(CN2CC3CC(C2)N3Cc2ccc3c(c2)CN(C2CCC(=O)NC2=O)C3=S)=C(c2ccc(Cl)cc2)C1 (stereo not drawn) [GT-08160, 3-(5-((3-((4'-chloro-5,5-dimethyl-3,4,5,6-tetrahydro-[1,1'-biphenyl]-2-yl)methyl)-3,6-diazabicyclo[3.1.1]heptan-6-yl)methyl)-1-thioxoisoindolin-2-yl)piperidine-2,6-dione] |  |  |  |  |  |  | 53 to 60% | 80 to 100% | B (80%< substrate protein remaining %≤ 100%) | B (80%< substrate protein remaining %≤ 100%) | A (0% ≤ substrate protein remaining % ≤ 80%) | A (0% ≤ substrate protein remaining % ≤ 80%) | A (0% ≤ substrate protein remaining % ≤ 80%) | A (0% ≤ substrate protein remaining % ≤ 80%) | 
O=C1CCC(N2Cc3cc(CN4CCN(C(c5ccc(Cl)cc5)c5ccc(Cl)cc5)CC4)ccc3C2=S)C(=O)N1 (stereo not drawn) [GT-07737, 3-(5-((4-(bis(4-chlorophenyl)methyl)piperazin-1-yl)methyl)-1-thioxoisoindolin-2-yl)piperidine-2,6-dione] | B (80%< substrate protein remaining %≤ 100%) | A (0% ≤ substrate protein remaining % ≤ 80%) | A (0% ≤ substrate protein remaining % ≤ 80%) | A (0% ≤ substrate protein remaining % ≤ 80%) | B (80%< substrate protein remaining %≤ 100%) | A (0% ≤ substrate protein remaining % ≤ 80%) | 30 to 40% | 53 to 60% |  |  |  |  |  |  | 
O=C1CCC(N2Cc3c(CN4CCC(c5noc6cc(F)ccc56)CC4)cccc3C2=S)C(=O)N1 (stereo not drawn) [GT-04997, 3-(4-((4-(6-fluorobenzo[d]isoxazol-3-yl)piperidin-1-yl)methyl)-1-thioxoisoindolin-2-yl)piperidine-2,6-dione] |  |  |  |  |  |  |  |  | B (80%< substrate protein remaining %≤ 100%) | B (80%< substrate protein remaining %≤ 100%) | B (80%< substrate protein remaining %≤ 100%) | B (80%< substrate protein remaining %≤ 100%) | A (0% ≤ substrate protein remaining % ≤ 80%) | B (80%< substrate protein remaining %≤ 100%) | 0.1 to 0.5 µM
O=C1CCC(N2Cc3cc(CN4CCN(c5nccc(Cl)c5F)CC4)ccc3C2=S)C(=O)N1 (stereo not drawn) [GT-09244, 3-(5-((4-(4-chloro-3-fluoropyridin-2-yl)piperazin-1-yl)methyl)-1-thioxoisoindolin-2-yl)piperidine-2,6-dione] |  |  |  |  |  |  | 60 to 80% | 80 to 100% | B (80%< substrate protein remaining %≤ 100%) | B (80%< substrate protein remaining %≤ 100%) | B (80%< substrate protein remaining %≤ 100%) | B (80%< substrate protein remaining %≤ 100%) | B (80%< substrate protein remaining %≤ 100%) | A (0% ≤ substrate protein remaining % ≤ 80%) | 
O=C1CCC(N2Cc3cc(CN4CC=C(c5cccc6cnccc56)CC4)ccc3C2=S)C(=O)N1 (stereo not drawn) [GT-05246, 3-(5-((4-(isoquinolin-5-yl)-3,6-dihydropyridin-1(2H)-yl)methyl)-1-thioxoisoindolin-2-yl)piperidine-2,6-dione] | B (80%< substrate protein remaining %≤ 100%) | B (80%< substrate protein remaining %≤ 100%) | B (80%< substrate protein remaining %≤ 100%) | B (80%< substrate protein remaining %≤ 100%) | A (0% ≤ substrate protein remaining % ≤ 80%) | A (0% ≤ substrate protein remaining % ≤ 80%) |  |  |  |  |  |  |  |  | 0.1 to 0.5 µM
O=C1CCC(N2Cc3cc(CN4CCC(n5cnc6cc(F)ccc65)CC4)ccc3C2=S)C(=O)N1 (stereo not drawn) [GT-09262, 3-(5-((4-(5-fluoro-1H-benzo[d]imidazol-1-yl)piperidin-1-yl)methyl)-1-thioxoisoindolin-2-yl)piperidine-2,6-dione] |  |  |  |  |  |  | 53 to 60% | 80 to 100% | B (80%< substrate protein remaining %≤ 100%) | B (80%< substrate protein remaining %≤ 100%) | B (80%< substrate protein remaining %≤ 100%) | B (80%< substrate protein remaining %≤ 100%) | B (80%< substrate protein remaining %≤ 100%) | A (0% ≤ substrate protein remaining % ≤ 80%) | 
O=C1CCC(N2Cc3c(CN4CCN(c5cc(Cl)nnc5Cl)CC4)cccc3C2=S)C(=O)N1 (stereo not drawn) [GT-08807, 3-(4-((4-(3,6-dichloropyridazin-4-yl)piperazin-1-yl)methyl)-1-thioxoisoindolin-2-yl)piperidine-2,6-dione] | B (80%< substrate protein remaining %≤ 100%) | B (80%< substrate protein remaining %≤ 100%) | B (80%< substrate protein remaining %≤ 100%) | B (80%< substrate protein remaining %≤ 100%) | A (0% ≤ substrate protein remaining % ≤ 80%) | B (80%< substrate protein remaining %≤ 100%) | 60 to 80% | 80 to 100% |  |  |  |  |  |  | 
O=C1CCC(N2Cc3cc(CN4CCN(c5ncnc6sc7c(c56)CCC7)CC4)ccc3C2=S)C(=O)N1 (stereo not drawn) [GT-09301, 3-(5-((4-(6,7-dihydro-5H-cyclopenta[4,5]thieno[2,3-d]pyrimidin-4-yl)piperazin-1-yl)methyl)-1-thioxoisoindolin-2-yl)piperidine-2,6-dione] |  |  |  |  |  |  | 60 to 80% | 80 to 100% | B (80%< substrate protein remaining %≤ 100%) | A (0% ≤ substrate protein remaining % ≤ 80%) | A (0% ≤ substrate protein remaining % ≤ 80%) | A (0% ≤ substrate protein remaining % ≤ 80%) | B (80%< substrate protein remaining %≤ 100%) | B (80%< substrate protein remaining %≤ 100%) | 
O=C1CCC(N2Cc3c(CN4CCN(C(c5ccccc5)c5ccccc5)CC4)cccc3C2=S)C(=O)N1 (stereo not drawn) [GT-08191, 3-(4-((4-benzhydrylpiperazin-1-yl)methyl)-1-thioxoisoindolin-2-yl)piperidine-2,6-dione] | B (80%< substrate protein remaining %≤ 100%) | B (80%< substrate protein remaining %≤ 100%) | B (80%< substrate protein remaining %≤ 100%) | B (80%< substrate protein remaining %≤ 100%) | B (80%< substrate protein remaining %≤ 100%) | A (0% ≤ substrate protein remaining % ≤ 80%) | 30 to 40% | 60 to 80% |  |  |  |  |  |  | 
